The source of these data is US10670605B2, “Cysteine reactive probes and uses thereof” (The Scripps Research Institute, priority 2015, dated 2020).

What all share (experiment): Competitive isoTOP-ABPP in situ (fragment-treated cells)
Holding throughout (assay type): cell-based

In experiment [1] the target is cysteines in MDA-MB-231 and Ramos cells (Homo sapiens, UniProt O14980). To be noted: 200 μM, insitu.
Experiment [2] deals with cysteines in MDA-MB-231 and Ramos cells (Homo sapiens, UniProt P27707). To be noted: 200 μM, insitu.
cysteines in MDA-MB-231 and Ramos cells (Homo sapiens, UniProt P27707), sequence (P27707 whole entry): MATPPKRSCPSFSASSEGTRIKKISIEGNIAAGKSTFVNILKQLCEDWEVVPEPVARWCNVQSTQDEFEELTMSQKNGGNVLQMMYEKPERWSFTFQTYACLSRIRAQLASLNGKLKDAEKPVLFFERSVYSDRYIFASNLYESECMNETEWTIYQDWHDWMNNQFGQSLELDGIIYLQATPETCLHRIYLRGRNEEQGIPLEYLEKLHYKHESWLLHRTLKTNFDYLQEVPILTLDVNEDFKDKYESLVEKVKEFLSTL
Experiment [3] deals with cysteines in MDA-MB-231 and Ramos cells (Homo sapiens, UniProt Q14137). The settings on record: 200 μM, insitu.
Experiment [4] has as its target cysteines in MDA-MB-231 and Ramos cells (Homo sapiens, UniProt Q14980). The settings on record: 200 μM, insitu, 231.
The target in experiment [5] is cysteines in MDA-MB-231 and Ramos cells (Homo sapiens, UniProt Q15118). The settings on record: 200 μM, insitu.
cysteines in MDA-MB-231 and Ramos cells (Homo sapiens, UniProt Q15118), sequence (Q15118 29-436): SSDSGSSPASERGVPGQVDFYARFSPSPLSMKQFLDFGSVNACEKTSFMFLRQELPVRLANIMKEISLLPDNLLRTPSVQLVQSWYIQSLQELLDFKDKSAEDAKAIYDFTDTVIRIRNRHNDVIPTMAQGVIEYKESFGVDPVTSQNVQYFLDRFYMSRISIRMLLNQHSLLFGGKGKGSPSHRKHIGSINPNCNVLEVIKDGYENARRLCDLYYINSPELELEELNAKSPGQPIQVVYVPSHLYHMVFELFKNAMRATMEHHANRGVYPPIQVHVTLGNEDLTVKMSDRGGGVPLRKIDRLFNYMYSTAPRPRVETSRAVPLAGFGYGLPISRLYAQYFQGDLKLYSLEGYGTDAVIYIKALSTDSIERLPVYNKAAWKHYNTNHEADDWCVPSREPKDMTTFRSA
Experiment [6] deals with cysteines in MDA-MB-231 and Ramos cells (Homo sapiens, UniProt Q15149). To be noted: 200 μM, insitu, 231.
The target in experiment [7] is T1, cysteines in MDA-MB-231 and Ramos cells (Homo sapiens, UniProt Q2NL82).
T1 sequence (Q2NL82 1-804): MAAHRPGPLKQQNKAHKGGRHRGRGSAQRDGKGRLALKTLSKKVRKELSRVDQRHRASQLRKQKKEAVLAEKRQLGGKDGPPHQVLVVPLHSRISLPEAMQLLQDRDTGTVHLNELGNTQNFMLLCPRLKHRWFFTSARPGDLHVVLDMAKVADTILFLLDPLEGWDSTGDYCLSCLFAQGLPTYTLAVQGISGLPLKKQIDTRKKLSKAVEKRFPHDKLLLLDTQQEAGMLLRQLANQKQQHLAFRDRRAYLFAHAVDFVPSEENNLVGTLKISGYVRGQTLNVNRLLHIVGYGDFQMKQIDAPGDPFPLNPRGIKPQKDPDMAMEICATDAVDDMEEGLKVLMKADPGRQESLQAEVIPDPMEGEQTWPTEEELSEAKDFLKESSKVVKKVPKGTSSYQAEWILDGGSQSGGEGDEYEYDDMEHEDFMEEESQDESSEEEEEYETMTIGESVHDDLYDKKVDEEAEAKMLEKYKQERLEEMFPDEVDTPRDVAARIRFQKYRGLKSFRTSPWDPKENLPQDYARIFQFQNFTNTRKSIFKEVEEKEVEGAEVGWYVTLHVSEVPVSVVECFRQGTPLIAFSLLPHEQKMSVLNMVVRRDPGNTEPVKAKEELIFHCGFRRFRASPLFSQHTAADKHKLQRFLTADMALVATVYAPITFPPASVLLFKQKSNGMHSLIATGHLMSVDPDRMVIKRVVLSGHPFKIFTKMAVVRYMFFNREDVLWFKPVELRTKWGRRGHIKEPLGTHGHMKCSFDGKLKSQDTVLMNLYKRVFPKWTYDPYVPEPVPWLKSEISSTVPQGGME
The settings on record: 200 μM, insitu, 231.

Experiment [8] deals with T2, cysteines in MDA-MB-231 and Ramos cells (Homo sapiens, UniProt Q8NFH5).
T2 sequence (Q8NFH5 1-326): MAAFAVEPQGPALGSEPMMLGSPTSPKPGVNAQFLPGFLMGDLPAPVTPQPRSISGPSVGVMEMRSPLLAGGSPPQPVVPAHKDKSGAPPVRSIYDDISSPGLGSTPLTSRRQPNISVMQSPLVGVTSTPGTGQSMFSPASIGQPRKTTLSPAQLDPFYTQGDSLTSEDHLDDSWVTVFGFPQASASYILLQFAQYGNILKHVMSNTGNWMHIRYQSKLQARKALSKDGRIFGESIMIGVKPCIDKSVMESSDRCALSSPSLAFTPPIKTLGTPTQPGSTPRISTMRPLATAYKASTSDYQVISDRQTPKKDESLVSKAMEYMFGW
To be noted: 200 μM, insitu.

Experiment [9] addresses cysteines in MDA-MB-231 and Ramos cells (Homo sapiens, UniProt P48643). The settings on record: 200 μM, insitu.
For experiment [10], the target named is T3, cysteines in MDA-MB-231 and Ramos cells (Homo sapiens, UniProt Q96RU2).
T3 sequence (Q96RU2 1-1077): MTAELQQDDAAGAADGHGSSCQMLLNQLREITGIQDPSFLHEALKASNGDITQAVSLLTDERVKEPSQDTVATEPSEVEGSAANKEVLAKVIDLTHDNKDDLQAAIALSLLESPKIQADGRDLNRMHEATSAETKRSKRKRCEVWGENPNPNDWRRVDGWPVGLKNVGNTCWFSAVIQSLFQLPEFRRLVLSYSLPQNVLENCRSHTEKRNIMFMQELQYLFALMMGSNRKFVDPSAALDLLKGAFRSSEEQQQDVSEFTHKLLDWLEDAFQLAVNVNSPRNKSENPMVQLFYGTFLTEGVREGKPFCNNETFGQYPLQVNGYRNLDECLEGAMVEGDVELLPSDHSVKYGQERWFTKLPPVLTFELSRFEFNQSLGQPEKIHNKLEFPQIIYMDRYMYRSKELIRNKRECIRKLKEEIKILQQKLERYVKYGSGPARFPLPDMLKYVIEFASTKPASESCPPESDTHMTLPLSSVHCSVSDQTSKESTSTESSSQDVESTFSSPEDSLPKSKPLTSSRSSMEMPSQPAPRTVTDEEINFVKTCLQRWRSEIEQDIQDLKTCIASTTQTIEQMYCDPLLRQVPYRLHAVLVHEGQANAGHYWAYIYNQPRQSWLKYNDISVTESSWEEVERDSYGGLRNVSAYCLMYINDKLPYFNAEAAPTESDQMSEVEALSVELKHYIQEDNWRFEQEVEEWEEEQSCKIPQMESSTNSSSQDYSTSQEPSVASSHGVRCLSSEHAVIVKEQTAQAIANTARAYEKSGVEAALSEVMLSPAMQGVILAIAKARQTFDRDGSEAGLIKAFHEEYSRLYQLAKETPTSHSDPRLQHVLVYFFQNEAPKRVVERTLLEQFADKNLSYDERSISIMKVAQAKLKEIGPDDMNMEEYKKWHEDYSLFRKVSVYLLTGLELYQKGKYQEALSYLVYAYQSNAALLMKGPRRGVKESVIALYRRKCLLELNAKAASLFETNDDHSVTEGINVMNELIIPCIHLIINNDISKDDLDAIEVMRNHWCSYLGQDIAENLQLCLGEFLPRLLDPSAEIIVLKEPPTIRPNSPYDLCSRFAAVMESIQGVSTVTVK
The settings on record: 200 μM, insitu, 231.

Experiment [11] concerns the target cysteines in MDA-MB-231 and Ramos cells (Homo sapiens, UniProt Q9UJW0). To be noted: 200 μM, insitu.

cysteines in MDA-MB-231 and Ramos cells (Homo sapiens, UniProt Q9UJW0), sequence (Q9UJW0 whole entry): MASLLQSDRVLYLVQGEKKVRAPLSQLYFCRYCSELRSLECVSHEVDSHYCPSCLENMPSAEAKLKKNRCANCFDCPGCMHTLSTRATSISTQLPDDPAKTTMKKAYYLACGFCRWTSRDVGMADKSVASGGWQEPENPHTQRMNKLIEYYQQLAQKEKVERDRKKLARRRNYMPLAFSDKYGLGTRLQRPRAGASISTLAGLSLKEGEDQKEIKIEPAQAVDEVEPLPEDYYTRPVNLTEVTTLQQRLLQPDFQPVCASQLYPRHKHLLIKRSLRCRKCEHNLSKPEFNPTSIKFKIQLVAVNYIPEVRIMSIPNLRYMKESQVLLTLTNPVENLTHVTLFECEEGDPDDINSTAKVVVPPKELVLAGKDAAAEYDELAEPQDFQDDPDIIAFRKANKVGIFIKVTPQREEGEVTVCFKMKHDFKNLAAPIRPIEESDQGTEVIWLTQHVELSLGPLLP
cysteines in MDA-MB-231 and Ramos cells (Homo sapiens, UniProt O14980), sequence (O14980 whole entry): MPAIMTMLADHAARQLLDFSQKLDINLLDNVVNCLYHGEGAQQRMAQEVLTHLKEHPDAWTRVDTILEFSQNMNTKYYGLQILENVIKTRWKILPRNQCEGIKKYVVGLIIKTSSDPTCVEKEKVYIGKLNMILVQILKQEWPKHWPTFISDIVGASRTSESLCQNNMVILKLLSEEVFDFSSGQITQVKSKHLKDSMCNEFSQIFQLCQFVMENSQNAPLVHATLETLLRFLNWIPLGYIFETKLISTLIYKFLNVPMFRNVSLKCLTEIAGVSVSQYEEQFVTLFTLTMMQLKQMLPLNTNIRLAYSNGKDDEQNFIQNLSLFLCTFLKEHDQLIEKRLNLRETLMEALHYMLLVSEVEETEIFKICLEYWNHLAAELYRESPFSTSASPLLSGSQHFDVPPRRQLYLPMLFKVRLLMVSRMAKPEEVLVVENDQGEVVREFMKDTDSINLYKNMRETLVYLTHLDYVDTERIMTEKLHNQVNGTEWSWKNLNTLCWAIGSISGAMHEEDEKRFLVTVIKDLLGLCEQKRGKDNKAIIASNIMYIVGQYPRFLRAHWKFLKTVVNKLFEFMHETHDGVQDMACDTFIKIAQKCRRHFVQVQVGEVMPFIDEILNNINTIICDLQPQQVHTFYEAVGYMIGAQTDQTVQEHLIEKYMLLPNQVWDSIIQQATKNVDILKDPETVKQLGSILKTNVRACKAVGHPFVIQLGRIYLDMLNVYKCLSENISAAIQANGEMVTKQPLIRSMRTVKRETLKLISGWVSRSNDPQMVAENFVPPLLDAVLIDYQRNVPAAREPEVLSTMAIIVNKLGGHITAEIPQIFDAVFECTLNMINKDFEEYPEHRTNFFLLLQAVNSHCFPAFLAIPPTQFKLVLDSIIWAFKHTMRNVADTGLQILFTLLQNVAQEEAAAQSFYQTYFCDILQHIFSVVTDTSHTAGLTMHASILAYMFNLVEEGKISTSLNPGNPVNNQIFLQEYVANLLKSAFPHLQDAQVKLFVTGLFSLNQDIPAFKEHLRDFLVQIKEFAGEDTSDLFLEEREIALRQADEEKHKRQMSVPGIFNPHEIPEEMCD
cysteines in MDA-MB-231 and Ramos cells (Homo sapiens, UniProt P48643), sequence (P48643 whole entry): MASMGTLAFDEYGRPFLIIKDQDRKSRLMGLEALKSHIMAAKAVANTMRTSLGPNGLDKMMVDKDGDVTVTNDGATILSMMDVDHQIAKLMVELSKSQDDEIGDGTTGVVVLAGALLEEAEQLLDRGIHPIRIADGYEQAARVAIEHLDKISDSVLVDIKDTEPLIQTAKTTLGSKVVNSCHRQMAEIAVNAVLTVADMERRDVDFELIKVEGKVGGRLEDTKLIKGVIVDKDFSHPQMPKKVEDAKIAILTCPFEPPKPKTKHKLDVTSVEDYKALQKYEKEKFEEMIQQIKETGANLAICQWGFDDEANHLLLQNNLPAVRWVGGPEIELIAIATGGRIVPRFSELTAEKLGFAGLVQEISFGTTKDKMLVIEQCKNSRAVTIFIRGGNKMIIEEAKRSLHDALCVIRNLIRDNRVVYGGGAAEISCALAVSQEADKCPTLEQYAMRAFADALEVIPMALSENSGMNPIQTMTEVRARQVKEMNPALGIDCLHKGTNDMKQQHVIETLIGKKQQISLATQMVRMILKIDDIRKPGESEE
cysteines in MDA-MB-231 and Ramos cells (Homo sapiens, UniProt Q14980), sequence (Q14980 whole entry): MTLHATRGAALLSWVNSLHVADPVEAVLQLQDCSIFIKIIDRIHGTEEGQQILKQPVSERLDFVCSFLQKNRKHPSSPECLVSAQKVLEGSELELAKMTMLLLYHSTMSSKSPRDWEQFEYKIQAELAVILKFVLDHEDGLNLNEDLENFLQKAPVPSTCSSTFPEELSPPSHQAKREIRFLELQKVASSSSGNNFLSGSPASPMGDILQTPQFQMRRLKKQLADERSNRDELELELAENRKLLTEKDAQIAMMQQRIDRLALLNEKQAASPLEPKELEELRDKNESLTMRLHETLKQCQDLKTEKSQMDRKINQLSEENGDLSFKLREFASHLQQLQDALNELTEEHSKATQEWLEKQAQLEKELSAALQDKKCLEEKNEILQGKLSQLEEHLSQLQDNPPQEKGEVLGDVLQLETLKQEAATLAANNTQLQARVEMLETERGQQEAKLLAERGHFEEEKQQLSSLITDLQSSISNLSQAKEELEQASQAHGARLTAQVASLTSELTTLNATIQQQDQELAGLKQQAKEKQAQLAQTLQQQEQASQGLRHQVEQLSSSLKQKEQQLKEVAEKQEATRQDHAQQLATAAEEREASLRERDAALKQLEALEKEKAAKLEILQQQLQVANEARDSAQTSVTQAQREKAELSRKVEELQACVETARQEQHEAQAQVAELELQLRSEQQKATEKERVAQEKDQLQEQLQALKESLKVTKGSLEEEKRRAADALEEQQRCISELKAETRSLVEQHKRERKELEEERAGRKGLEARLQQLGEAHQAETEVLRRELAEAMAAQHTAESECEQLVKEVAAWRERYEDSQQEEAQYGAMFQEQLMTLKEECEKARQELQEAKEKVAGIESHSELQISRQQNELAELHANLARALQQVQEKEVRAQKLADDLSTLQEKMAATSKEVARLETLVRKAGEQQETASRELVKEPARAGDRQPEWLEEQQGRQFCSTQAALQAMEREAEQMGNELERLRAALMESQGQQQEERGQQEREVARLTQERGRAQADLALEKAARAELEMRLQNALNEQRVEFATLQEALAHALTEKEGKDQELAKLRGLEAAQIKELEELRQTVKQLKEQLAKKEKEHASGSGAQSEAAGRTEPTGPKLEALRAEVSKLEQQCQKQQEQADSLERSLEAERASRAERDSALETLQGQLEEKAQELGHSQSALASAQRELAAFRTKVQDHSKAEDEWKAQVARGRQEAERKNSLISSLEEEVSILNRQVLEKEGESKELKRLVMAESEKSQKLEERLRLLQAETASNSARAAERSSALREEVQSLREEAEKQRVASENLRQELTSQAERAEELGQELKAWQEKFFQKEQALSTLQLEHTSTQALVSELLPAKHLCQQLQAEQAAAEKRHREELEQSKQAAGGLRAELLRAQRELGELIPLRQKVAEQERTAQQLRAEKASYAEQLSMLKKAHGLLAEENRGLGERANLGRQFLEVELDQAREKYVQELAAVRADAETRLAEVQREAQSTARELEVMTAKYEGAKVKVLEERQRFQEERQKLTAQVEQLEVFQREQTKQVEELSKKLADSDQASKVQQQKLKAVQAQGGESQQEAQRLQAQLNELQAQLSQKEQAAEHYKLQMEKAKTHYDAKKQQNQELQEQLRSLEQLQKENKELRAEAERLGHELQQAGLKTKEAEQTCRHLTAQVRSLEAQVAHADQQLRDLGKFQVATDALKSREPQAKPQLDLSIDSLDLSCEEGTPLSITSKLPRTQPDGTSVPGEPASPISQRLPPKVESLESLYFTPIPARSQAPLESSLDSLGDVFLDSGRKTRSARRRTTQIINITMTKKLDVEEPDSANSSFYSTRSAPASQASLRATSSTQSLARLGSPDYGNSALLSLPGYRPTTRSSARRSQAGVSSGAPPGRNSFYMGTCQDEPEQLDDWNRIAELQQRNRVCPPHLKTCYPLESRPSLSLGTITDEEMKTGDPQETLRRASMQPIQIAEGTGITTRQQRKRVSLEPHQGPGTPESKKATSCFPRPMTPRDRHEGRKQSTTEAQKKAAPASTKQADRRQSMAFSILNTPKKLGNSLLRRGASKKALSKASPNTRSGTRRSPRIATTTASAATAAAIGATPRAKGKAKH

In the case of `O=C(CCl)NC12CC3CC(CC(C3)C1)C2` [compound 21], in experiment [1] (231), the “isoTOP-ABPP ratio O14980_C528” value is reported as 0.8. Moreover, the “isoTOP-ABPP ratio P27707_C9” value in experiment [2] (231) is recorded as 1.3. For the same molecule, the “isoTOP-ABPP ratio, cysteine Q14137_C404” value in experiment [3] (231) was 1.1. Further, in experiment [4], the “isoTOP-ABPP ratio, cysteine Q14980_C961” value is 3.7. For the same molecule, the “isoTOP-ABPP ratio Q15118_C71” value in [5] (231) turned out to be 1.7. For the same molecule, the “isoTOP-ABPP ratio, cysteine Q15149_C4574” value in experiment [6] is on record as 1.0. Further, the “isoTOP-ABPP ratio, cysteine Q2NL82_C126” value in experiment [7] was found to be 1.5. The “isoTOP-ABPP ratio Q8NFH5_C255” value in [8] (231) turned out to be 1.8.

In the case of `COc1ccccc1OCCNC(=O)CCl` [compound 28], in [9] (231), the “isoTOP-ABPP ratio P48643_C253” value is listed as 0.8. For the same molecule, the “isoTOP-ABPP ratio, Q96RU2_C171” value in experiment [10] is recorded as 1.1.

As to `O=C(CCl)N1CCN(CC(=O)N2CCOCC2)CC1` [compound 29], the “isoTOP-ABPP ratio O14980_C528” value in [1] (ramos) is 1.1. Besides, in [2] (ramos), the “isoTOP-ABPP ratio P27707_C9” value worked out at 1.2. In addition, the “isoTOP-ABPP ratio Q14137_C404” value in [3] (ramos) is 1.5. The “isoTOP-ABPP ratio Q15118_C71” value in experiment [5] (ramos) was 1.8. Also, in experiment [8] (ramos), the “isoTOP-ABPP ratio Q8NFH5_C255” value is 1.6. For the same molecule, in [11] (ramos), the “isoTOP-ABPP ratio Q9UJW0_C258” value turned out to be 20.0.

In the case of `C=CC(=O)N(Cc1cccnc1)c1cc(C(F)(F)F)cc(C(F)(F)F)c1` [compound 31], the “isoTOP-ABPP ratio P27707_C9” value in [2] (ramos) turned out to be 1.2. Moreover, the “isoTOP-ABPP ratio P48643_C253” value in experiment [9] (231) is on record as 0.5; in experiment [9] (ramos), 1.0. For the same molecule, the “isoTOP-ABPP ratio Q14980_C961” value in [4] was found to be 1.1.

For `Cc1ccc(C=C(C#N)C(=O)NCCN2CCOCC2)cc1` [compound 41], in experiment [1] (231), the “isoTOP-ABPP ratio O14980_C528” value was found to be 0.9. Further, the “isoTOP-ABPP ratio P27707_C9” value in experiment [2] (231) worked out at 0.4. For the same molecule, the “isoTOP-ABPP ratio P48643_C253” value in experiment [9] (231) came out at 0.8. Further, the “isoTOP-ABPP ratio Q15149_C4574” value in experiment [6] is 0.9. The “isoTOP-ABPP ratio Q2NL82_C126” value in experiment [7] was 0.8. Moreover, the “isoTOP-ABPP ratio Q8NFH5_C255” value in experiment [8] (231) is listed as 0.8. Also, in experiment [11] (231), the “isoTOP-ABPP ratio Q9UJW0_C258” value turned out to be 0.7.

Take `CC1CCc2ccccc2N1C(=O)CCl` (stereo not drawn) [compound 45]: the “isoTOP-ABPP ratio P48643_C253” value in experiment [9] (231) is recorded as 1.2. Besides, in experiment [5] (231), the “isoTOP-ABPP ratio Q15118_C71” value is 20.0. Besides, the “isoTOP-ABPP ratio Q2NL82_C126” value in [7] was determined as 20.0. The “isoTOP-ABPP ratio Q8NFH5_C255” value in experiment [8] (231) is reported as 5.5. Moreover, the “isoTOP-ABPP ratio Q9UJW0_C258” value in experiment [11] (231) is 2.7.

For `O=C(CCl)Nc1cccc2ncccc12` [compound 51], the “isoTOP-ABPP ratio O14980_C528” value in experiment [1] (231) is 1.1. For the same molecule, in experiment [9] (231), the “isoTOP-ABPP ratio P48643_C253” value is 0.8. In [7], the “isoTOP-ABPP ratio Q2NL82_C126” value turned out to be 1.9. Further, in experiment [11] (231), the “isoTOP-ABPP ratio Q9UJW0_C258” value worked out at 1.1.
